The source of these data is patent US8324284B2, “Migrastatin analogs and uses thereof” (Sloan-Kettering Institute for Cancer Research, priority 2003, dated 2012).

Read-outs that look alike come from different tables or passages of the source.

The conditions of data set [1]: rcm bond, toluene, 0.25 h.
Data set [2] concerns 4T1 mouse breast tumor cells. In words: Chamber cell migration assay with 4T1 tumor cells. Type of data set: cell-based. Conditions: for IC50: Boyden chamber, 6-8 h, average of three experiments; for inhibitory activity on 4T1 tumor cell migration, in words: chamber assay. As to the method: The biological evaluation of the compounds (in terms of their ability to inhibit cell migration) was accomplished in a Boyden chamber cell migration assay. In this assay, mouse breast tumor cells (4T1 cells) or endothelial cells (HUVECs) are seeded on the upper chamber of a transwell insert. Growth factor-containing serum is added to the lower chamber.
Chamber Cell Migration Assay (Tables 4 and 6): Cell migrations were assayed with Boyden chambers [8.0 μm pore size, polyethylene terephthalate membrane, FALCON cell culture insert (Becton-Dickinson)]. 4T1 mouse breast tumor cells or HUVECs were trypsinized and counted. 300 μl of 5−10×10^4 cells in serum-free medium was added to the upper chamber and 500 μl of medium with 10% fetal bovine serum (FBS) was added to the lower chamber. […] Cells on the inside of the transwell inserts were removed with a cotton swab, and cells on the underside of the insert were fixed and stained. Photographs of three random regions were taken and the number of cells was counted to calculate the average number of cells that have transmigrated.

The next data set relates to HUVEC. In words: Tube formation assay. Type of data set: cell-based, human. Conditions: minimal concentration causing definite disturbance of tube network; 16-18 h; tested 200, 100, 50, 25, 10 μM. As to the method:
A protocol was designed based on the instructions from the provider (BD Bioscience, San Jose, Calif.). Briefly, wells of a 48 well culture dish were covert with 150 μL matrigel and the matrigel was gelatinized for 30 min at 37° C. A 80-90% confluent HUVEC (BD Bioscience, San Jose, Calif.) culture was trypsin treated, the detached cells were collected by centrifugation and resuspended in EGM-2 media (BD Bioscience, San Jose, Calif.). Cell concentration was adjusted to 100.000 cells/mL. 400 μL of the cell suspension were filled in the matrigel coated wells, and a solution of the inhibitor was added to the intended final concentration. The plates were incubated at 37° C. with 5% CO2 for 16-18 h. Media was removed, and the matrigel surface was washed twice with 500 μL PBS before cells were labeled with 250 μL […] Calcein AM (Pierce, Rockford, Ill.) in PBS for 30 min at 37° C. After two additional washing steps (500 μL PBS) cells were visualized under an inverted microscope. Fluorescence was excited at 488 nm and recorded at 538 nm. The minimum effect concentration was defined as the minimal inhibitor concentration that caused a definite disturbance of the complexity of the formed tube network.

A further data set has as its system KYSE-520 cells. In words: Wound healing (scratch) assay. It is filed as cell-based. To be noted: 28 to 30 h, tested 200, 100, 50, 25, 10 μM. Here is the method: The wound healing assay was performed based on the method described by Nakae et al. (Nakae et al., J. Antibiotics (2000), 53, 1130-1136). Briefly, adherent cells were grown in a suitable media to confluence (e.g. KYSE-520 cells in RPMI-1640 with 10% FBS). Cells were starved for 24 h in serum free media. A scratch (ca. 0.5 mm) was applied and the cell layer was washed twice with PBS after removal of the media. Fresh, serum free media with the test compound at the desired concentration was added and the cells were incubated for 28 to 30 h at 37° C., 5% CO2. The scratch size was compared to that observed for cells exposed to 100 μM Migrastatin. Test compounds associated with a scratch size equal to or larger than that observed for cells exposed to 100 μM Migrastatin were deemed to have cell migration inhibitory activity at least equal to Migrastatin.

Data set [3] has as its system 4T1 tumor lung metastasis. The experiment in a line: 4T1 tumor lung metastasis in syngeneic mice. It is filed as in vivo, mouse. Conditions: for lung metastasis, colonies (6-thioguanine clonogenic assay): mean and standard deviation; for inhibition of lung metastasis: 10 mg/kg i.p. daily Day 7-25. Here is the method: Female BALB/c mice (6-8 week old) were purchased from the Jackson Laboratory (Bar Harbor, Me.). All mice were housed at the Weill Medical College of Cornell University Animal Facilities in accordance with the Principles of Animal Care (NIH publication no. 85-23, revised 1985). 4T1 tumor cells (1×10^5) were injected subcutaneously into the abdominal mammary gland area of mice in 0.1 ml of a single-cell suspension in phosphate buffered saline (PBS) on Day 0. The dosage of tumor implantation was empirically determined to give rise to tumor of ˜10 mm in diameter in untreated wild type mice in 21-23 days. On Day 7, when the tumors averaged in size ˜4-5 mm in diameter, migrastatin analogs or control PBS saline were given every day by intraperitoneal injection at 10 mg/kg or 20 mg/kg per mouse until Day 25. On Day 28, the mice were sacrificed. This regiment of migrastatin analogs was well tolerated with no signs of overt toxicity. Every group included five mice. Primary tumors were measured using electronic calipers on the day when the mice were sacrificed. Tumor size was the square root of the product of two perpendicular diameters. Numbers of metastatic 4T1 cells in lung were determined by the clonogenic assay.^63 In brief, lungs were removed from each mouse on Day 28, finely minced and digested in 5 ml of enzyme cocktail containing 1×PBS and 1 mg/ml collagenase type IV for 2 hours at 37° C. on a platform rocker. After incubation, samples were filtered through 70 uM nylon cell strainers and washed twice with PBS. Resulting cells were suspended and plated serially diluted in 10 cm tissue culture dishes in medium RPMI1640 containing 60 uM thioguanine for clonogenic growth. 6-Thioguanine-resistant tumor cells formed foci after 14 days, at which time they were fixed with methanol and stained with 0.03% methylene blue for counting.
Treatment 4T1 tumor lung metastasis in syngeneic mice with migrastatin analogs (See, FIG. 4). 4T1 tumor cells (10^5) were injected s.c. in the abdominal mammary gland with 0.1 ml of a single-cell suspension. Macroketone or macrolactam at 10 mg/kg or 20 mg/kg was given i.p. on Day 7 when the tumor size was about 5 mm in diameter, and every day until Day 25. On Day 28, the mice were sacrificed. Each group comprised five mice. Lung metastasis was measured by the 6-thiogunine clonogenic assay. The mean and standard deviation are presented. In the control group (daily PBS injection), there were 61300±18900 colonies.

Data set [4] is described as follows: Metabolic stability in mouse plasma. Type of data set: in vitro ADME. To be noted: mouse plasma/PBS, 37° C. Here is the method:
Mouse Plasma Stability Studies (Table 5): HPLC conditions: The sample is injected and separated using an Inertsil ODS3 6u 3×150 mm column with a mobile phase of MeCN and water (50% for migrastatin) at a flow of 0.4 mL/min, monitored at 220 nm at 0.02 AUFS (the retention time for migrastatin is ca. 4 min, the identity of this peak was confirmed by mass spectral analysis). Incubation and sample preparation conditions: A solution (ca. 30 mM) of chemical compound (Table 5) in DMSO is prepared. 2 μL of the solution is added to a mixture containing 200 μL of mouse plasma and 800 μL of PBS. The resulting solution is put into a water bath at 37° C., and 100 μL of sample is withdrawn at 10, 20, 30, 45, and 60 min. The precipitate is removed by centrifugation and 20 μL of the supernatant is injected onto the HPLC.

In turn, `CO[C@H]1C=CCC/C=C/C(=O)OC/C(C)=C\[C@@H](C)[C@@H]1O[Si](C)(C)C(C)(C)C` displayed a ring closure, yield of all isomers in data set [1] (from C=CCC/C=C/C(=O)OC/C(C)=C\[C@@H](C)[C@H](O[Si](C)(C)C(C)(C)C)[C@H](C=C)OC, Grubbs-II catalyst, 0.664 mM, 110.0 °C) of 55%.

On to `CO[C@H]1C=CCC/C=C/C(=O)O[C@H]([C@H](C)C(=O)CCCC2CC(=O)NC(=O)C2)/C(C)=C\[C@@H](C)[C@@H]1O[Si](C)(C)C(C)(C)C`, for which the ring closure, yield of all isomers in data set [1] (from C=CCC/C=C/C(=O)O[C@@H](/C(C)=C\[C@@H](C)[C@H](O[Si](C)(C)C(C)(C)C)[C@H](C=C)OC)[C@H](C)C(=O)CCCC1CC(=O)NC(=O)C1, Grubbs-II catalyst, 0.46 mM, 110.0 °C) came out at 69%.

`CO[C@H]1C=CCCCCC(=O)CC/C(C)=C\[C@@H](C)[C@@H]1O[Si](C)(C)C(C)(C)C` showed a ring closure, yield of all isomers in data set [1] (from C=CCCCCC(=O)CC/C(C)=C\[C@@H](C)[C@H](O[Si](C)(C)C(C)(C)C)[C@H](C=C)OC, Grubbs-II, 0.508 mM, 111.0 °C) of 81%.

`CO[C@H]1C=CCCCCC(=O)OC/C(C)=C\[C@@H](C)[C@@H]1O[Si](C)(C)C(C)(C)C` returned a ring closure, yield of all isomers in data set [1] (from C=CCCCCC(=O)OC/C(C)=C\[C@@H](C)[C@H](O[Si](C)(C)C(C)(C)C)[C@H](C=C)OC, Grubbs-II catalyst, 0.498 mM, 110.0 °C) of 76%.

As to `CO[C@H]1C=CCCCCC(=O)O[C@@H](C(C)C)/C(C)=C\[C@@H](C)[C@@H]1O`, the ring closure, yield of all isomers in data set [1] (from C=CCCCCC(=O)O[C@H](/C(C)=C\[C@@H](C)[C@H](O[Si](C)(C)C(C)(C)C)[C@H](C=C)OC)C(C)C, Grubbs-II, 0.53 mM, 111.0 °C, 2 steps) turned out to be 65%.

Regarding `CO[C@H]1C=CCCCCC(=O)O[C@H]([C@H](C)C(=O)CCCC2CC(=O)NC(=O)C2)/C(C)=C\[C@@H](C)[C@@H]1O[Si](C)(C)C(C)(C)C`, the ring closure, yield of all isomers in data set [1] (from C=CCCCCC(=O)O[C@@H](/C(C)=C\[C@@H](C)[C@H](O[Si](C)(C)C(C)(C)C)[C@H](C=C)OC)[C@H](C)C(=O)CCCC1CC(=O)NC(=O)C1, Grubbs-II catalyst, 0.48 mM, 110.0 °C) was 79%.

With `COC1C=CCCCCC(=NNC(=O)CCOCCOCCOCCOCCNC(=O)CCCCC2SCC3NC(=O)NC32)CCC(C)=CC(C)C1O` (mixture of isomers) [biotinylated macrohydrazone (73), Biotinylated Macrohydrazone], in data set [2], half-maximal inhibition (IC50) required 0.331 µM and the “inhibitory activity on 4T1 tumor cell migration, in words” value (from here on “inhibitory activity”) is recorded as “inhibitory potency is largely retained”.

As to `COC1C=CCCCCC(=O)OC(C(C)C(=O)CCCC2CC(=O)NC(=O)C2)C(C)=CC(C)C1O` (centres unmarked) [2,3-dihydromigrastatin (41), 2,3-Dihydromigrastatin], the Minimum effect concentration in the data set with HUVEC worked out at 50 µM; in the data set on KYSE-520 cells it was 25 µM.

Take `COC1C=CCCCCC(=O)OC(C(C)C)C(C)=CC(C)C1O` [(R)-isopropyl macrolactone (68), (R)-Isopropyl Macrolactone]: in data set [2], the half-maximal inhibitory concentration (IC50) (commonly the point on the concentration scale where inhibition reaches its midpoint) turned out to be 146 µM and the “inhibitory activity” value is “only very weak effects on tumor cell migration”.

As to `COC1C=CCCCCC(=O)OC(C(C)C)C(C)=CC(C)C1O` [(S)-isopropyl macrolactone (65), (S)-Isopropyl Macrolactone], in data set [2], the IC50 came out at 227 µM and the “inhibitory activity” value is given as “only very weak effects on tumor cell migration”.

Regarding `COC1C=CCCCCC(=O)OC(C(C)C(=O)CCCC2CC(=O)N(C)C(=O)C2)C(C)=CC(C)C1O` (centres unmarked) [N-methyl-2,3-dihydromigrastatin (42), N-Methyl-2,3-Dihydromigrastatin], the IC50 in data set [2] was 7 µM.

For `CO[C@H]1/C=C/CCCCC(=O)OC/C(C)=C\[C@@H](C)[C@@H]1OC(C)=O` [acetylated macrolactone (49), Acetylated Macrolactone], in data set [2], the “inhibitory activity” value was “reduced by roughly an order of magnitude”.

In data set [2], `C[C@@H]1O[C@H]2C3=C(C(=O)[C@@H]4O[C@@H]4[C@H]3O)[C@@H]1[C@H]1[C@H](C)OC=C3[C@H](O)[C@H]4OC4C(=O)[C@@]312` (some centres unmarked) [epoxyquinol, epoxyquinol A, reference compound] registered an IC50 of 0.026 µM.

With `CO[C@H]1/C=C/CCCCC(O)(C(F)(F)F)CC/C(C)=C\[C@@H](C)[C@@H]1O` (some centres unmarked) [macrocyclic CF3-alcohol (71), Macrocyclic CF3-Alcohol], in data set [2], the “inhibitory activity” value is recorded as “displays the same activity profile as macroketone 60”.

Regarding `COC1C=CCCCCC(=O)NCC(C)=CC(C)C1O` (centres unmarked) [macrolactam (55), Macrolactam], the “lung metastasis, colonies (6-thioguanine clonogenic assay)” value in data set [3] (10 mg/kg i.p. daily Day 7-25, Day 28) is on record as 5333±1778 colonies; in data set [3] (20 mg/kg i.p. daily Day 7-25, Day 28) it was 5675±6263 colonies. Moreover, the inhibition of lung metastasis in data set [3] (listed as macrolactam) was 91%; in data set [3] (listed as macrolactam 55), ~91%.

`COC1C=CCCC=CC(=O)OCC(C)=CC(C)C1O` (centres unmarked) [migrastatin core (45), Migrastatin Core] yielded a Minimum effect concentration in the data set with HUVEC of 10 µM. The “stability (t1/2, mouse plasma)” value in data set [4] is on record as 20 min. Moreover, the “stability (t1/2, mouse plasma), in words” value in data set [4] (60 min of incubation, stable = intensity of HPLC signal unchanged) is given as “hydrolyzed rapidly”.

Consider `CO[C@H]1/C=C/CCCCC(=O)OC/C(C)=C\[C@@H](C)C1=O` [oxidized macrolactone (50), Oxidized Macrolactone], for which the “inhibitory activity” value in data set [2] is reported as “reduced by roughly an order of magnitude”.
